Assay results as given in patent US11958868B2, “Methods of using metal complexes to promote wound healing” (University of Macau, priority 2022, dated 2024).

Legend:
PHD2 = biological target: T1, PHD2 (Homo sapiens, UniProt Q9GZT9); experiment: Cellular thermal shift assay (CETSA) in HEK293 cell lysates, PHD2; format: binding; conditions: 3 μM
T1 construct: detected by Western blotting using either VHL or PHD2 antibodies; endogenous in cells; host or cells: HEK293 cell lysate
Procedure: HEK293 cells were treated with vehicle DMSO (1% for 2 h), 1a (0.3, 1, 3, 6 and 9 μM for 2 h), VH298 (100 μM for 2 h), MG132 (20 μM for 3 h), or FG-4592 (100 μM for 2 h) before lysis. Cell lysates were collected and incubated with VHL antibody overnight at 4° C. The proteins were immunoprecipitated using agarose beads. The levels of hydroxy-HIF-1α co-precipitated with VHL were detected using a hydroxy-HIF-1α antibody, and then visualized using ECL Western Blotting Detection Reagent (GE Healthcare). (B) Cellular thermal shift assays to monitor cellular target engagement of VHL and HIF-1α. HEK293 cell lysates were treated with 1a (3 μM) at room temperature for 30 min and then heated at different temperature ranging from 48° C. to 68° C. for 5 min. The protein samples were collected and detected by Western blotting using either VHL or PHD2 antibodies. (C) Fluorescence-based protein thermal shift assay of VBC in the presence or absence of VH298 (100 μM) and complex 1a (100 μM). […] Data are expressed as means±SD (n=3 independent experiments for figures a and b, samples for figures c and e), P values were calculated using a two-sided t-test. *P<0.05, **P<0.01 vs. DMSO group.
After incubating HEK293 cell lysates with complex 1a followed by heating to set temperatures, VHL and PHD2 levels in the soluble fraction were quantitated by Western blotting. […]

[1] = tested on: EPO, GLUT1 and VEGF in HIF-1α knockdown HEK293 cells; experiment: HIF-1α knockdown assay in HEK293 cells; format: cell-based, Human; conditions: HIF-1α siRNA
Procedure: FIG. 3 depicts the effect of complex 1a on HIF-1α target gene products in cellulo. (A) Effect of complex 1a on specific proteins (GLUT1, VEGF, and EPO) mediated by HIF-1α in HEK293 cells. HEK293 cells were treated with 1a for 2 h. Cell lysis were collected and analyzed by the Western blotting. (B) Complex 1a has no effect on HIF-1α accumulation in a VHL null cancer cell line. A498 (VHL-null), or HEK293 cells were treated with 1% DMSO, 1a (3 μM), VH298 (100 μM), and FG-4592 (100 μM) for 2 h before lysis. (C) Effect of complex 1a on EPO, GLUT1, and VEGF levels in HEK293 cells with or without HIF-1α knockdown. Left: The expression levels of EPO, GLUT1, and VEGF in HEK293 cells with or without knockdown HIF-1α in the presence or absence of 1a. Right: Densitometry analysis of EPO, GLUT1, and VEGF levels on the Western blot. HIF-1α siRNA [sense, 5′-[…]-3′ (SEQ ID NO:1), antisense, 5′-[…]-3′ (SEQ ID NO:2)]. Negative control (NC) siRNA [sense, 5′-[…]-3′ (SEQ ID NO:3), antisense, 5′-[…]-3′ (SEQ ID NO:4)]. Data are expressed as means±SD (n=3 independent experiments), P values were calculated using a two-sided t-test. #P<0.05, P<0.01 HIF-1α siRNA vs. NC siRNA, *P<0.05, **P<0.01 1a vs. vehicle/DMSO group, respectively.
A knockdown assay was performed to further verify the on-target effect of complex 1a. EPO, GLUT1, and VEGF are target genes regulated by HIF-1α. […]

[2] = tested on: oxygen depletion, PHD inhibition, proteasomal inhibition; experiment: Alternative mechanisms of HIF activation (oxygen depletion, PHD inhibition, proteasomal inhibition)
[3] = ICP-MS analysis of iridium in skin samples; format: in vivo; conditions: dosed STZ and HFD/STZ mice
Procedure: STZ mice were obtained by a single injection of high-dose streptozotocin (150 mg/kg) (Supplementary FIG. 10a). HFD/STZ mice were generated by 8 weeks high-fat diet feeding, followed by low-dose streptozotocin injection for 7 days (40 mg/kg/day) (Supplementary FIG. 11a). 3 days after streptozotocin injection, STZ or HFD/STZ mice with fasting blood glucose levels between 15 and 28 mmol/L were considered as diabetic mice and used in wound healing experiments. STZ and HFD/STZ mice were intraperitoneally injected with either vehicle (PEG 400: distilled water=6:4, v/v) or 1.25 mg/kg complex 1a every other day for 8 days, respectively.

T1 sequence (Q9GZT9 whole entry): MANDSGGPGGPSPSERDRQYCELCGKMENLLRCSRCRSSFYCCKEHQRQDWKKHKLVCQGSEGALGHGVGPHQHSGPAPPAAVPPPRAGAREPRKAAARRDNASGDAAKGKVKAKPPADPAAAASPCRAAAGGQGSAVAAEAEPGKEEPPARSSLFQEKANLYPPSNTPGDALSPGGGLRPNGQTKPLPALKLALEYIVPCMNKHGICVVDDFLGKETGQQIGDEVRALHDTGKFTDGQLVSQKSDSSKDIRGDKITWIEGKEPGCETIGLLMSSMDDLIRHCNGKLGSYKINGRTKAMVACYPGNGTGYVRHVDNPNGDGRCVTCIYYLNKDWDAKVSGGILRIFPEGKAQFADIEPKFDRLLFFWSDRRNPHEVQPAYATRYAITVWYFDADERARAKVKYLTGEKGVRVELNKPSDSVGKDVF

SMILES: COc1cc[n+]2c3c1ccc1c(OC)cc[n+](c13)[Ir-3]213([c]2ccccc2-c2cccc[n+]21)[c]1ccccc1-c1cccc[n+]13.F[P-](F)(F)(F)(F)F [1a]
- Thermal stabilization of PHD2 (CETSA) (PHD2): no appreciable effect on the thermal stabilization of PHD2
- Accumulation of EPO, GLUT1 and VEGF in HIF-1α knockdown cells compared with normal cells [1]: less able to increase the accumulation of EPO, GLUT1, and VEGF in HIF-1α knockdown cells
- Activation of HIF signaling via oxygen depletion, PHD inhibition and/or proteasomal inhibition [2]: unlikely to activate HIF signaling via oxygen depletion, PHD inhibition, and/or proteasomal inhibition
- Iridium in skin samples (ICP-MS) [3]: confirmed the presence of iridium in skin samples
